According to patent US20060216336A1, “Transdermal therapeutic system for Parkinson's Disease” (priority 2002, published 2006):

Tests used:
[1] = Placebo-controlled trial in early stage idiopathic Parkinson's disease: rotigotine plasma concentrations during titration and maintenance (Example 5); assay type: in vivo, human; conditions: for rotigotine plasma concentration, Max / rotigotine plasma concentration, Mean / rotigotine plasma concentration, Median / rotigotine plasma concentration, Min: prior removal
Text: Trial periods consisted of a 4-week pre-treatment (washout) period, a 3-week dose escalation period, a 25-week dose maintenance period, and a 4-week follow-up period for a total duration of 36 weeks.

RLS symptoms = conditions: administration of rotigotine; cited from earlier work
[2] = Day 1 MP (maintenance period), 13.5 mg/day
[3] = Day 15 TP (titration period), 9.0 mg/day
[4] = Day 57 MP (maintenance period), 13.5 mg/day
[5] = Day 113 MP (maintenance period), 13.5 mg/day
[6] = End of MP (maintenance period), 13.5 mg/day

Structure (SMILES): CCCN(CCc1cccs1)[C@H]1CCc2c(O)cccc2C1 [rotigotine, (6S)-6{propyl[2-(2-thienyl)ethyl]amino}-5,6,7,8-tetrahydro-1-naphthalenol]
- rotigotine plasma concentration, Max [1, 2]: 2.130 ng/mL
- rotigotine plasma concentration, Mean [1, 2]: 0.757 ng/mL
- rotigotine plasma concentration, Median [1, 2]: 0.714 ng/mL
- rotigotine plasma concentration, Min [1, 2]: 0.064 ng/mL
- rotigotine plasma concentration, Max [1, 3]: 1.580 ng/mL
- rotigotine plasma concentration, Mean [1, 3]: 0.508 ng/mL
- rotigotine plasma concentration, Median [1, 3]: 0.435 ng/mL
- rotigotine plasma concentration, Min [1, 3]: 0.053 ng/mL
- rotigotine plasma concentration, Max [1, 4]: 2.070 ng/mL
- rotigotine plasma concentration, Mean [1, 4]: 0.824 ng/mL
- rotigotine plasma concentration, Median [1, 4]: 0.702 ng/mL
- rotigotine plasma concentration, Max [1, 5]: 2.420 ng/mL
- rotigotine plasma concentration, Mean [1, 5]: 0.825 ng/mL
- rotigotine plasma concentration, Median [1, 5]: 0.713 ng/mL
- rotigotine plasma concentration, Min [1, 5]: 0.122 ng/mL
- rotigotine plasma concentration, Max [1, 6]: 1.800 ng/mL
- rotigotine plasma concentration, Mean [1, 6]: 0.788 ng/mL
- rotigotine plasma concentration, Median [1, 6]: 0.729 ng/mL
- rotigotine plasma concentration, Min [1, 6]: 0.282 ng/mL
- rotigotine plasma concentration over the maintenance phase ([1]; FIG. 10): stable concentration
- effect on RLS symptoms (RLS symptoms): suppression and reduction of RLS symptoms
